The values that follow come from patent US20240148740A1, “COMBINATION OF AN AHR INHIBITOR WITH A PDX INHIBITOR OR DOXORUBICINE” (Ikena Oncology, Inc., priority 2020, published 2024).

Series [1] in a line: Nonclinical safety studies in monkeys (incl. 28-day GLP). The series is classed as in vivo, monkey.
The nature of series [2]: Phase 1 study, interim cohort pharmacokinetics. The series is classed as in vivo, human. On the procedure:
Serial blood samples are obtained to characterize the plasma PK of Compound A and its major active metabolites. The initial sampling strategy is based on the predicted human PK of this compound. If in the course of evaluating the PK, it is determined that an alternative sampling scheme would be more informative, then that alternative sampling scheme can be implemented if the total amount of blood and blood draws obtained for PK is not increased. Moreover, the total number of samples can be decreased at any time if the initial sampling scheme is considered unnecessarily intensive.

The nature of series [3]: Levels of doxorubicin in plasma (UPLC). It counts as in vivo, mouse. To be noted: day 28 after cell inoculation; FIG. 7. On the procedure:
To analyze the levels of doxorubicin in plasma, blood was collected using retro-orbital vein bleeding. Plasma was generated after centrifuging blood in dipotassium EDTA tubes for 10 min at 4° C. Plasma was transferred in new tubes and stored at −80° C.
Doxorubicin levels in plasma were analyzed by UPLC.
To determine whether Compound A treatment had any effects on doxorubicin metabolism, the levels of doxorubicin in plasma were analyzed on day 28 after cell inoculation.

The target of series [4] is T1, AHR (Homo sapiens, UniProt P35869).
T1 sequence (P35869 11-848): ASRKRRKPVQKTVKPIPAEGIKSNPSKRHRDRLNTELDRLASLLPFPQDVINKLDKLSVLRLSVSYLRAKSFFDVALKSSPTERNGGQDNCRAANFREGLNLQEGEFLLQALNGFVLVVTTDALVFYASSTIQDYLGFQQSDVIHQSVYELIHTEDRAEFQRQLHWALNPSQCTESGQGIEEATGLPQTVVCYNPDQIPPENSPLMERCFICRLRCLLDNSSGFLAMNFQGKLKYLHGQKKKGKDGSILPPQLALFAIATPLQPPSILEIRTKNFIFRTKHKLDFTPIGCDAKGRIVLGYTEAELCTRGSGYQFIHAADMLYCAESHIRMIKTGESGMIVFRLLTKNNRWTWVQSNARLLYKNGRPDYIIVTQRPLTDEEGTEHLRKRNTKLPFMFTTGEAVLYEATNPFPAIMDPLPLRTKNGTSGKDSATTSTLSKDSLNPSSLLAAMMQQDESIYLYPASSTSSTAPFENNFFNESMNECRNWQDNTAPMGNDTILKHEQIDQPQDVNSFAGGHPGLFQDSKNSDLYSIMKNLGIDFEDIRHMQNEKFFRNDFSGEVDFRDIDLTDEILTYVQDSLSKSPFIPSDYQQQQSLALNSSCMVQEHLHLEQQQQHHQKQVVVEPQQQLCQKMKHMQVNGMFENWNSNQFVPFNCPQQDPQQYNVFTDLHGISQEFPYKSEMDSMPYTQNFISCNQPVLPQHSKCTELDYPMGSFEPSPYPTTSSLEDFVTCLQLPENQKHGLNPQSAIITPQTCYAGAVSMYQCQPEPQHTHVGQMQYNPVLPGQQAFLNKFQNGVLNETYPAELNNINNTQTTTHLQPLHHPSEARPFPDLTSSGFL
The experiment in a line: CYP1B1 gene expression in human whole blood exposed ex vivo. The arrangement: endogenous in cells. The series is classed as cell-based. To be noted: Compound A concentrations >0.5 μM; both donors; basal and ligand activated (L-kynurenine) conditions; 24 hours. On the procedure:
To further examine the effects of Compound A on basal and ligand-activated AHR-dependent gene expression in human immune cells, blood samples from 2 healthy human donors were exposed ex vivo to Compound A in the presence or absence of […] L-kynurenine to activate AHR. After 24 hours, cells were evaluated for CYP1B1 gene expression. […] In both donors, Compound A concentrations >0.5 μM inhibited CYP1B1 gene expression by greater than 50% under basal and ligand activated conditions.

The subject of the next series is human T cells. The experiment in a line: Human T cell assays (summary). The series is classed as cell-based. How it is done: AHR plays a key role in immune cells and its' inhibition is proposed to reverse immune suppression and activate T cells. The ability of Compound A to inhibit AHR-dependent CYP1A1 expression and cytokine production was assessed in primary human T cells. AHR directly regulates the expression of the immune suppressive cytokine IL-22. Human T cells isolated from healthy donor PBMCs were activated with CD3/CD28 tetramer and incubated for 24 hours with Compound A. Cell pellets were processed for RNA isolation and CYP1A1 analysis by quantitative reverse-transcriptase polymerase chain reaction. For the cytokine analysis assay, CD3/CD28 activated T cells were treated with Compound A, and culture supernatants were collected after 48 hours for analysis of IL-22 levels using Meso Scale Discovery V-plex IL-22 plates. Compound A inhibited AHR-dependent gene expression in activated human T cells by decreasing expression of CYP1A1 in a concentration--dependent manner.

The target in series [5] is T1, AHR. The experiment in a line: Phase 1 study, pharmacodynamic whole blood assay of AHR target genes. To be noted: all subjects in the 200 mg, 400 mg, and 800 mg cohorts. It counts as in vivo. From the text:
Because the starting dose and any higher dose of Compound A is expected to be near or at the pharmacologically active range, each subject is required to have blood drawn and tumor biopsies for secondary and exploratory pharmacodynamic endpoints. The blood and tumor tissue samples are used to confirm AHR target engagement. Individual subjects can be exempted from the tumor biopsy requirement upon discussion and prior agreement by the Sponsor. The initial sampling strategy is based on the predicted human pharmacodynamics of Compound A. If in the course of evaluating the pharmacodynamics, it is determined that an alternative sampling scheme would be more informative, then that alternative sampling scheme can be implemented if the total amount of blood, blood draws, and tumor biopsies obtained for pharmacodynamics is not increased. Moreover, the total number of samples can be decreased at any time if the initial sampling scheme is considered unnecessarily intensive.

Series [6] deals with T1, AHR. The experiment in a line: Selectivity for AHR over other receptors, transporters, and kinases.

Entries after “also recorded” stand apart in the source; their conditions may differ.

Turning to `CC(C)c1cnn2c(N[C@@H]3CCc4[nH]c5ccccc5c4C3)nc(-c3cncc(F)c3)nc12` [Compound A, (R)—N-(2-(5-fluoropyridin-3-yl)-8-isopropylpyrazolo[1,5-a][1,3,5]triazin-4-yl)-2,3,4,9-tetrahydro-1H-carbazol-3-amine], the “noteworthy findings (monkey)” value in series [1] (monkey) was “decreased thymus weights and cortical lymphocytes”. Further, the QTc prolongation entry in series [1] (monkeys) is on record as “up to 11%”. Further, in series [2] (Cycle 2 Day 1 (C2D1)), the “dose proportionality of PK” value was “greater than dose proportional”. For the same compound, the “exposure with increase in dose” value in series [2] (interim cohort PK) was “Increased exposure with increase in dose”. The “effect of Compound A treatment on doxorubicin drug levels in plasma / metabolism of Doxil” value in series [3] is reported as “does not affect; also recorded: did not have any effect”. Further, at AHR [4], the “inhibition of CYP1B1 gene expression” value is given as “greater than 50%”. Moreover, in the series with human T cells, the T cell state entry was “induces an activated T cell state”; the “pro-inflammatory cytokines, such as IL-2 and IL-9” value was “increase”. Also, on AHR [5], the “inhibition of expression of AHR target gene CYP1B1” value is on record as “Robust inhibition”. Besides, the “selectivity for AHR over other receptors, transporters, and kinases” value at AHR [6] is “highly selective”.
